Here are results for 2 compounds from US10517851B2, “Vasopressin-like action enhancer” (KYORIN PHARMACEUTICAL CO., LTD., priority 2015, dated 2019).

The test system of assay [1] is female rats. In words: Effect of mozavaptan (V2 antagonist) on antidiuretic action in water-loaded rats. It is filed as in vivo, rat. Here is the method: The method according to Watanabe et al. (Watanabe et al 2013 Antidiuretic effect of antimuscanrinic agents in rat model depends on C-fibre afferent nerves in the bladder. BJU Int 112(1) 131-6) was carried out with a partial modification. Female rats (10 to 11-week-old, obtained from Charles River Laboratories Japan) were intravenously administered with a vehicle (dimethylformamide or saline); mozavaptan (a dose of 0.1 mL/kg of a 30 mg/mL solution); 3 mg/kg of mozavaptan and imidafenacin (10 μg/kg or 300 μg/kg); 3 mg/kg of mozavaptan and desmopressin (0.003 μg/kg or 0.1 μg/kg); or 3 mg/kg of mozavaptan, imidafenacin (10 μg/kg or 300 μg/kg) and desmopressin (0.003 μg/kg or 0.1 μg/kg), and subjected to an oral water load (25 mL/kg). After the rats were transferred to Bollmann cages, urine was collected for 2 hours from each rat via a catheter previously inserted and fixed to the bladder apex of the rat (8 rats in each group).

Assay [2] deals with female rats. In words: Antidiuretic action in water-loaded rats, urine collected for 2 hours (single agent). The conditions noted are these: oral water load 25 mL/kg, FIG. 1 / FIG. 2; for antidiuretic action: intravenous dose series; for reduction of the urinary volume at the maximum: intravenous. It is filed as in vivo, rat. Here is the method:
A method according to Watanabe et al. (Watanabe et al 2013 Antidiuretic effect of antimuscanrinic agents in rat model depends on C-fibre afferent nerves in the bladder. BJU Int 112(1) 131-6) was carried out with a partial modification. Female rats (10 to 11-week-old, obtained from Charles River Laboratories Japan) were intravenously administered (1 mL/kg) with a vehicle (saline) or imidafenacin ([…]) and subjected to an oral water load (25 mL/kg). After the rats were transferred to Bollmann cages, urine was collected for 2 hours from each rat via a catheter previously inserted and fixed to the bladder apex of the rat (8 rats in each group). The method according to Watanabe et al. (Watanabe et al 2013 Antidiuretic effect of antimuscanrinic agents in rat model depends on C-fibre afferent nerves in the bladder. BJU Int 112(1) 131-6) was carried out with a partial modification. Female rats (10 to 11-week-old, obtained from Charles River Laboratories Japan) were intravenously administered (1 mL/kg) with a vehicle (saline) or desmopressin ([…]) and subjected to an oral water load (25 mL/kg). After the rats were transferred to Bollmann cages, urine was collected for 2 hours from each rat via a catheter previously inserted and fixed to the bladder apex of the rat (8 rats in each group).

Assay [3] has as its system vasopressin. The conditions noted are these: rat; previous report BJU Int 112(1) 131-6; cited from earlier work.

Molecules are shown by their SMILES.

On to `NC(=O)CC[C@@H]1NC(=O)[C@H](Cc2ccccc2)NC(=O)[C@H](Cc2ccc(O)cc2)NC(=O)CCSSC[C@@H](C(=O)N2CCC[C@H]2C(=O)N[C@H](CCCN=C(N)N)C(=O)NCC(N)=O)NC(=O)[C@H](CC(N)=O)NC1=O` [desmopressin], for which the “antidiuretic action of desmopressin at the maximum reaction dose in the presence of mozavaptan” value in assay [1] (desmopressin 0.1 μg/kg with 3 mg/kg of mozavaptan, intravenous, FIG. 4) was “recovered”. In addition, the “antidiuretic action of desmopressin in the presence of mozavaptan” value in assay [1] (desmopressin with 3 mg/kg of mozavaptan, intravenous, FIG. 4) is recorded as “also suppressed”. For the same compound, in assay [2], the antidiuretic action result is given as “dose-dependent manner” and the “reduction of the urinary volume at the maximum” value is “about 100%”.

As to `Cc1nccn1CCC(C(N)=O)(c1ccccc1)c1ccccc1` [imidafenacin], in assay [3], the release of vasopressin entry is listed as “not affected”. For the same compound, the “antidiuretic action on addition of imidafenacin to the mozavaptan and desmopressin group” value in assay [1] (imidafenacin 300 μg/kg added to 3 mg/kg mozavaptan and 0.1 μg/kg desmopressin, FIG. 5) was “further enhanced”. In assay [1] (imidafenacin at the maximum reaction dose of 300 μg/kg with 3 mg/kg of mozavaptan, intravenous, FIG. 4), the “antidiuretic action of imidafenacin in the presence of mozavaptan” value is given as “completely suppressed”. Moreover, in assay [2], the antidiuretic action entry was “dose-dependent manner” and the “reduction of the urinary volume at the maximum” value is reported as “about 50%”.
